Data from publication PMC8537746, “New Pyridone-Based Derivatives as Cannabinoid Receptor Type 2 Agonists” (International Journal of Molecular Sciences, 2021).

Experiments:
HL-60 cells = test: Neutral red uptake cell viability assay, HL-60; conditions: Homo sapiens, HL-60, 72 h, read-out: IC50 HL-60
Procedure: (§1) Two different cell lines were used: HepG2 as a model of hepatic tissue; and HL-60 cells as a model of blood cells. Low levels of expression of CBR exists in normal liver however, several pathological conditions have shown high upregulation of hepatic CB2R [28].
(§2) Cell lines were grown in culture media supplemented with 10% fetal bovine serum (FBS), 100 U/mL of penicillin, 100 μg/mL of streptomycin and 1% of non-essential aminoacids. Cells between passage 5 to 10 were used in experiments. Dulbecco’s Modified Eagle Medium (DMEM) was used for HepG2 cells and Roswell Park Memorial Institute (RPMI) was used for HL-60 cells. […] All cellular lines used were provided by Dr. Mario Faúndez, Laboratory of Molecular Pharmacology, Faculty of Chemistry and Pharmacy, Pontificia Universidad Católica de Chile.
(§3) The effect of compounds in cell viability was determined by Neutral Red uptake assay. Cells were seeded in 100 μL of media at a density of 10^4 cells/well in 96-well microtiter plates. Solutions of compounds were previously prepared in DMSO and 1 μL of the corresponding solution was added to each well. The final volume of each well was adjusted to 200 μL. After 72 h of incubation, culture media was removed and 100 μL of 10 μg/mL neutral red solution prepared in culture media was added to each well and incubated for 3 h. Then, media was aspirated, the plate was washed three times with PBS 1X and 100 μL of neutral red distain solution (50:49:1 ethanol:water:glacial acetic acid) was added. The plate was placed for 15 min in a shaker and fluorescence was measured using Cytation 5 apparatus (Biotek, Winooski, VT, USA) at 530/645 nm excitation/emission wavelengths.

HepG2 cells = test: Neutral red uptake cell viability assay, HepG2; conditions: for IC50: Homo sapiens, HepG2, 72 h, read-out: IC50 HepG2
Procedure: as §1, §2, §3

[1] = target: T1, human cannabinoid receptor type II (CB2R) (Homo sapiens, UniProt P34972); test: Human CB2R cAMP agonist cellular functional assay (Eurofins Cerep); type: cell-based; conditions: for % CB2R Agonist Response: 10 µM, CHO cells expressing hCB2R, percentage relative to control (100 nM WIN55212-2), rounded mean of two assays; for EC50: EC50, intracellular cAMP, CHO-hCB2R
T1 construct: host or cells: CHO cells
T1 sequence (P34972 whole entry): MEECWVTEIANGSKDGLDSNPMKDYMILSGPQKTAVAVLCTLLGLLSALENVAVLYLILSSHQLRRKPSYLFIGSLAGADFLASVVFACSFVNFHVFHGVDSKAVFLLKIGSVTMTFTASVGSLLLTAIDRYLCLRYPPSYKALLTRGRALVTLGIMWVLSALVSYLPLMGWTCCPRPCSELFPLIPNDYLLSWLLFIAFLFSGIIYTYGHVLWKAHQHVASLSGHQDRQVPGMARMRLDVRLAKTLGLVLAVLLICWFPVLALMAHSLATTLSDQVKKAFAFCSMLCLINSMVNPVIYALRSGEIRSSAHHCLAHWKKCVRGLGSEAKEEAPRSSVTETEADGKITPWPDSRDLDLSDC
Procedure: Functional evaluation was carried out by Eurofins Cerep service assay: CB2 Human Cannabinoid GPCR Cell Based Agonist cAMP Assay. CHO cells stably expressing hCB2R (Eurofins Cerep) are suspended in HBSS buffer (Invitrogen) complemented with 20 mM HEPES (pH 7.4), then distributed in microplates at a density of 7.5 × 10^3 cells/well in the presence of either of the following: HBSS (basal control), the reference agonist at 100 nM (stimulated control) or various concentrations (EC50 determination), or the test compounds. Thereafter, the adenylyl cyclase activator NKH 477 is added at a final concentration of 3 μM. Following 10 min incubation at 37 °C, the cells are lysed, and the fluorescence acceptor (D2-labeled cAMP) and fluorescence donor (anti-cAMP antibody labeled with europium cryptate) are added. After 60 min at room temperature, the fluorescence transfer is measured at λex = 337 nm and λem = 620 and 665 nm using a microplate reader (Envison, Perkin Elmer). The cAMP concentration is determined by dividing the signal measured at 665 nm by that measured at 620 nm (ratio). The results are expressed as a percent of the control response to 100 nM WIN55212-2. The standard reference agonist is WIN 55212-2, which is tested in each experiment at several concentrations to generate a concentration-response curve from which its EC50 value is calculated.

CB2 = target: CB2; parameters: method as in PMID 11597467, PMID 23623258, PMID 23395112, PMID 21702498, PMID 17004710; conditions: Figure 1; cited from earlier work
[2] = Neutral red uptake cell viability assay, HL-60; conditions: human
Procedure: as §1, §2, §3

SMILES	melting point [°C]	% CB2R Agonist Response [1] [%]	further results
Cc1cc(C)n(-c2ccccc2)c(=O)c1C(=O)NC12CC3CC(CC(C3)C1)C2 [Compound 8c, N-(adamantan-1-yl)-4,6-dimethyl-2-oxo-1-phenyl-1,2-dihydropyridine-3-carboxamide]	164 to 165		IC50 (HL-60 cells): > 100 µM; IC50 (HepG2 cells): > 200 µM
Cc1ccc(-n2c(C)cc(C)c(C(=O)Nc3nc4ccccc4[nH]3)c2=O)cc1 [Compound 7e, N-(1H-benzo[d]imidazol-2-yl)-4,6-dimethyl-2-oxo-1-(4-methylphenyl)-1,2-dihydropyridine-3-carboxamide]	198 to 200	0	
Cc1cc(C)n(-c2ccccc2)c(=O)c1C(=O)Nc1nc2ccccc2o1 [Compound 7c, N-(benzo[d]oxazol-2-yl)-4,6-dimethyl-2-oxo-1-phenyl-1,2-dihydropyridine-3-carboxamide]	228 to 230	13	
N#CCC(=O)NN [Compound 2]			Ki (CB2): 0.014 µM
Cc1ccc(-n2c(C)cc(C)c(C(=O)NC34CC5CC(CC(C5)C3)C4)c2=O)cc1 [Compound 8d, N-(adamantan-1-yl)-4,6-dimethyl-2-oxo-1-(4-methylphenyl)-1,2-dihydropyridine-3-carboxamide]	154 to 155		IC50 (HL-60 cells): > 100 µM; viability at 72 h, 200 µM [2]: 10%; EC50 [1]: 0.112 µM; EC50 ([1]; n = 3): 0.11 µM; IC50 (HepG2 cells): > 200 µM; effect on cell viability in HepG2 cells (HepG2 cells; concentrations as high as 200 μM, compared to control): did not show significant effect on cell viability
O=C(NC1CCCCCC1)c1cn2c3c(cccc3c1=O)OCC2c1ccccc1 (stereo not drawn) [Compound 5]			Ki (CB2): 0.00081 µM
Cc1cc(C)n(-c2ccccc2)c(=O)c1C(=O)NC1CCCCCC1 [Compound 8b, N-cycloheptyl-4,6-dimethyl-2-oxo-1-phenyl-1,2-dihydropyridine-3-carboxamide]	138 to 140		IC50 (HL-60 cells): > 100 µM; IC50 (HepG2 cells): > 200 µM
Cc1cc(C)n(-c2ccccc2)c(=O)c1C(=O)Nc1nc2ccccc2s1 [Compound 7a, N-(benzo[d]thiazol-2-yl)-4,6-dimethyl-2-oxo-1-phenyl-1,2-dihydropyridine-3-carboxamide]	163 to 165		
CCOC(=O)CC#N [Compound 1]			Ki (CB2): 0.0002 µM
Cc1cc(C)n(C(=O)CC#N)n1 [Compound 3]	119 to 121		Ki (CB2): 0.0006 µM
Cc1cc(C)n(-c2ccc(O)cc2)c(=O)c1C(=O)Nc1nc2ccccc2[nH]1 [Compound 7f, N-(1H-benzo[d]imidazol-2-yl)-1-(4-hydroxyphenyl)-4,6-dimethyl-2-oxo-1,2-dihydropyridine-3-carboxamide]	176 to 178	13	
COc1ccc2c(=O)c(C(=O)NC3CCCCC3)cn(Cc3ccc(F)cc3)c2n1 [Compound 4]			Ki (CB2): 0.011 µM
Cc1cc(C)n(-c2ccc(O)cc2)c(=O)c1C(=O)NC1CCCCC1 [Compound 8g, N-cyclohexyl-1-(4-hydroxyphenyl)-4,6-dimethyl-2-oxo-1,2-dihydropyridine-3-carboxamide]	139 to 140	4	
Cc1cc(C)n(-c2ccccc2)c(=O)c1C(=O)Nc1nc2ccccc2[nH]1 [Compound 7b, N-(1H-benzo[d]imidazol-2-yl)-4,6-dimethyl-2-oxo-1-phenyl-1,2-dihydropyridine-3-carboxamide]	177 to 179	8	IC50 (HL-60 cells): > 100 µM; IC50 (HepG2 cells): > 200 µM
Cc1cc(C)n(-c2ccccc2)c(=O)c1C(=O)NC1CCCCC1 [Compound 8a, N-cyclohexyl-4,6-dimethyl-2-oxo-1-phenyl-1,2-dihydropyridine-3-carboxamide]	139 to 140	12	
Cc1ccc(-n2c(C)cc(C)c(C(=O)NC3CCCCCC3)c2=O)cc1 [Compound 8e, N-cycloheptyl-4,6-dimethyl-2-oxo-(4-methylphenyl)-1,2-dihydropyridine-3-carboxamide]	238 to 240	0	
Cc1ccc(-n2c(C)cc(C)c(C(=O)Nc3nc4ccccc4o3)c2=O)cc1 [Compound 7d, N-(benzo[d]oxazol-2-yl)-4,6-dimethyl-2-oxo-1-(4-methylphenyl)-1,2-dihydropyridine-3-carboxamide]		0	
Cc1cc(C)n(-c2ccc(O)cc2)c(=O)c1C(=O)NC1CCCCCC1 [Compound 8f, N-cycloheptyl-1-(4-hydroxyphenyl)-4,6-dimethyl-2-oxo-1,2-dihydropyridine-3-carboxamide]	232 to 233	0	
